We go through three molecules from EP0306455A1, “Cyclodextrin complexes of bis-biguanido hexane compounds” (WARNER-LAMBERT COMPANY, priority 1987, dated 1989).

Counter-ions that a name gives are not always drawn. Like-named read-outs stand apart in the source and are kept apart here.

The subject of one data set is A.viscosus. Put plainly: Anti-microbial activity (MIC and MLC). It counts as cell-based. The conditions noted are these: complex compared with uncomplexed chlorhexidine digluconate. The text has this: (§1) A comparison of the anti-microbial activity of chlorhexidine digluconate and beta-cyclodextrin complexed chlorhexidine digluconates were compared against four microorganisms, C.albicans, S. anaguis, S.mutans and A.viscosus.

Another data set relates to C.albicans. Put plainly: Anti-microbial activity (MIC and MLC). Conditions: complex compared with uncomplexed chlorhexidine digluconate. It is filed as cell-based.
Text: as §1

For the next data set, the system named is S. anaguis. Put plainly: Anti-microbial activity (MIC and MLC). It is filed as cell-based. Conditions: complex compared with uncomplexed chlorhexidine digluconate.
Text: as §1

Another data set relates to S.mutans. Put plainly: Anti-microbial activity (MIC and MLC). It is filed as cell-based. The conditions noted are these: complex compared with uncomplexed chlorhexidine digluconate.
Text: as §1

The procedure of data set [1]:
Free chlorhexidine has a water solubility of about 8 mg. per 100 ml. of water at room temperature.

For data set [2] the following is noted: background statement, temperature not given; dihydrochloride; cited from earlier work.

Take `N=C(NCCCCCCNC(=N)NC(=N)Nc1ccc(Cl)cc1)NC(=N)Nc1ccc(Cl)cc1` [chlorhexidine digluconate]: the “minimum inhibitory concentration (MIC)” value in the data set with A.viscosus, in the data set with C.albicans, in the data set with S. anaguis and in the data set with S.mutans was “similar” each time. Also, the “minimum lethal concentration (MLC)” value in the data set on A.viscosus, with C.albicans, with S. anaguis and in the data set with S.mutans was “similar” in each case.
With `[H]/N=C(\N/C(=N/[H])NCCCCCCNC(=N)NC(=N)Nc1ccc(Cl)cc1)Nc1ccc(Cl)cc1` [chlorhexidine dihydrochloride], the figures for the water solubility in data set [1] (water) and in data set [2] were 60 mg. per 100 ml. of water and ~60 mg per 100 ml of water, respectively.
`[H]/N=C(\N/C(=N/[H])NCCCCCCNC(=N)NC(=N)Nc1ccc(Cl)cc1)Nc1ccc(Cl)cc1` [chlorhexidine, 1,6-di(p-chlorophenylbiguanides) hexane]: the water solubility result in data set [1] was “about 8 mg. per 100 ml. of water”; in data set [1] (water), 8 mg. per 100 ml. of water.
